# Tests used:
# Test in all cases: Kinase profiling screen (radioactive filter-binding assay)
# Format in all cases: biochemical
# CHK1 = biological target: T1, CHK1 (Homo sapiens, UniProt O14757); settings: 100 μM compound, 20 μM ATP; read-out: Kinase activity, % of activity in the absence of inhibitor
# T1 sequence (O14757 1-476): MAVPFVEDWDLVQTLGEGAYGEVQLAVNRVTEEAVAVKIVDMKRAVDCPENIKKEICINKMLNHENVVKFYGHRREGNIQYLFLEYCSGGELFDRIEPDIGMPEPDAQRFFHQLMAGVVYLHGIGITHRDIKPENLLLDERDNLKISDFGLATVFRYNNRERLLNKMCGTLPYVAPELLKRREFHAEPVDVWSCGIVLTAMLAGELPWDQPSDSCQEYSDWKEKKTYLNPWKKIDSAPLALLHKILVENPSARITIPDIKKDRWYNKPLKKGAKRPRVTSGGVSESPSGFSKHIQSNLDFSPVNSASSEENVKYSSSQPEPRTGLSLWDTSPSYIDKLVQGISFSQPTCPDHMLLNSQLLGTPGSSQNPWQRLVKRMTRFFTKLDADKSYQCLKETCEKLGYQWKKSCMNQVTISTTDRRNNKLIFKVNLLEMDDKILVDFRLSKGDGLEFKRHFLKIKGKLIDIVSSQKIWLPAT
# Protocol: (§1) Profiling of 117 protein kinases with CoA, dpCoA and ADP was carried out at the International Centre for Protein Kinase Profiling at the University of Dundee. Each compound was tested in vitro, in duplicate, at 100 μM final concentration using recombinant kinases, model substrates and optimal concentrations of ATP. Bacterially expressed full-length His-Aurora A was used to determine the IC50 value for CoA (in the presence or absence of DTT), dpCoA, ADP and desulfo-CoA. The assay was performed in the presence of 5 μM competing ATP. To examine whether the inhibitory effect of CoA on Aurora A is modulated by TPX2, IC50 values for CoA were also generated in the presence and absence of 1 μg TPX2 (residues 1–43) fragment.
# CLK2 = CLK2 (Homo sapiens, UniProt P49760); settings: 100 μM compound, 5 μM ATP; read-out: Kinase activity, % of activity in the absence of inhibitor
# Protocol: as §1
# ERK1 = ERK1 (Homo sapiens, UniProt P27361); settings: 100 μM compound, 5 μM ATP; read-out: Kinase activity, % of activity in the absence of inhibitor
# Chain of ERK1 (P27361 whole entry): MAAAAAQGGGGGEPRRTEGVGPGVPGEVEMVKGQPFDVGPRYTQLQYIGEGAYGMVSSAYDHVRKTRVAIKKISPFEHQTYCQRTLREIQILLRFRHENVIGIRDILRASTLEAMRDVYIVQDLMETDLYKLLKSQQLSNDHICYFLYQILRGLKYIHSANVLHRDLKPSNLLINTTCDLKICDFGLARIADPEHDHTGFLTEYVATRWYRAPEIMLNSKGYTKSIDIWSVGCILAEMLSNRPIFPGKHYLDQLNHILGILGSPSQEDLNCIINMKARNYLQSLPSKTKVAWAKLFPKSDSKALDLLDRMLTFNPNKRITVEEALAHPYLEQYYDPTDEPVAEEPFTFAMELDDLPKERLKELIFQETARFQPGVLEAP
# Protocol: as §1
# GSK3β = GSK3β (Homo sapiens, UniProt P49841); settings: 100 μM compound, 5 μM ATP; read-out: Kinase activity, % of activity in the absence of inhibitor
# Protocol: as §1
# HER4 = HER4 (Homo sapiens, UniProt Q15303); settings: 100 μM compound, 5 μM ATP; read-out: Kinase activity, % of activity in the absence of inhibitor
# Chain of HER4 (Q15303 26-1308): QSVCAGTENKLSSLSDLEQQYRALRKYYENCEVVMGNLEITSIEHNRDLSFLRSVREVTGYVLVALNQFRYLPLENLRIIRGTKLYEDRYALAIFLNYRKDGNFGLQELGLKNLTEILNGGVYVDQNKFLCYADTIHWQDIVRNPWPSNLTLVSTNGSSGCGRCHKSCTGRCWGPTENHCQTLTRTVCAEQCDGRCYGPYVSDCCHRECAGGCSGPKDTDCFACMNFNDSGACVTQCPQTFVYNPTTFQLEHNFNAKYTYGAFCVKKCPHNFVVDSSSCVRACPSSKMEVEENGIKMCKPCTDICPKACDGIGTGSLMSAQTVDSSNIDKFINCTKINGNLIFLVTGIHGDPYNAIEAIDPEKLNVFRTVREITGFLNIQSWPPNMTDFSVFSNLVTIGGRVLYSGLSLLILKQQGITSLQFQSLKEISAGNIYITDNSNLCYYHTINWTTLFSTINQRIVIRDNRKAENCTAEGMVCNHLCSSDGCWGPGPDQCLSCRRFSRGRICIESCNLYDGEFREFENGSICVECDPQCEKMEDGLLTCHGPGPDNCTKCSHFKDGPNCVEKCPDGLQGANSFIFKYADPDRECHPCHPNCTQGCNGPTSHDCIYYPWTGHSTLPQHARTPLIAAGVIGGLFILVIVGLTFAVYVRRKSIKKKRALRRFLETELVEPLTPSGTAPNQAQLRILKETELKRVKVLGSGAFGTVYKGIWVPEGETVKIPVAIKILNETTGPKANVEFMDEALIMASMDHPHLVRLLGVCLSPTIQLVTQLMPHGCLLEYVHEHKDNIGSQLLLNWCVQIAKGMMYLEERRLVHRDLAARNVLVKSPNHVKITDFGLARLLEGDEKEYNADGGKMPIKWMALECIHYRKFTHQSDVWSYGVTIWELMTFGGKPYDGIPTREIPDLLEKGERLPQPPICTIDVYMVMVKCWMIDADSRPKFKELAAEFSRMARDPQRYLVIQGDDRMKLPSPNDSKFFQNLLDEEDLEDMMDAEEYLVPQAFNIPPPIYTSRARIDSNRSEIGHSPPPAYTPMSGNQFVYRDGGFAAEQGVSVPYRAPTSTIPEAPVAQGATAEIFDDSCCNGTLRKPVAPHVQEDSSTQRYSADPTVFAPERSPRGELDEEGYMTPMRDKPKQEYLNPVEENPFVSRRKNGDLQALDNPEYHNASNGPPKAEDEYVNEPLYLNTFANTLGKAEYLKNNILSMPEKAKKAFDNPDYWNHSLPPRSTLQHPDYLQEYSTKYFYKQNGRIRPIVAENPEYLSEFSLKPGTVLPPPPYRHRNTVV
# Protocol: as §1
# HIPK1 = HIPK1 (Homo sapiens, UniProt Q86Z02); settings: 100 μM compound, 20 μM ATP; read-out: Kinase activity, % of activity in the absence of inhibitor
# Protocol: as §1
# MAPKAP-K2 = MAPKAP-K2 (Homo sapiens, UniProt P49137); settings: 100 μM compound, 20 μM ATP; read-out: Kinase activity, % of activity in the absence of inhibitor
# Chain of MAPKAP-K2 (P49137 whole entry): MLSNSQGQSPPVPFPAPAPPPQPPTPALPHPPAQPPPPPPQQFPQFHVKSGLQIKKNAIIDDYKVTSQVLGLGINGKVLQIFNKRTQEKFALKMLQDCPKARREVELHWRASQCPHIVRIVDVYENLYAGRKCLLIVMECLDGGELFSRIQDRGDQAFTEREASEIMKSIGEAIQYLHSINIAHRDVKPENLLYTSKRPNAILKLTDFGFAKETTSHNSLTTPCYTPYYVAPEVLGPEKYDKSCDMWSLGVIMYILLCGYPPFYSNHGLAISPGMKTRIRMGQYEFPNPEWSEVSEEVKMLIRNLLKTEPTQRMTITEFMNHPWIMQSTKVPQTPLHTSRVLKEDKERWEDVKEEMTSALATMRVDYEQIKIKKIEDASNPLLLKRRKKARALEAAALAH
# Protocol: as §1
# NEK2α = biological target: T2, NEK2α (Homo sapiens, UniProt P51955); settings: 100 μM compound, 50 μM ATP; read-out: Kinase activity, % of activity in the absence of inhibitor
# T2 sequence (P51955 1-445): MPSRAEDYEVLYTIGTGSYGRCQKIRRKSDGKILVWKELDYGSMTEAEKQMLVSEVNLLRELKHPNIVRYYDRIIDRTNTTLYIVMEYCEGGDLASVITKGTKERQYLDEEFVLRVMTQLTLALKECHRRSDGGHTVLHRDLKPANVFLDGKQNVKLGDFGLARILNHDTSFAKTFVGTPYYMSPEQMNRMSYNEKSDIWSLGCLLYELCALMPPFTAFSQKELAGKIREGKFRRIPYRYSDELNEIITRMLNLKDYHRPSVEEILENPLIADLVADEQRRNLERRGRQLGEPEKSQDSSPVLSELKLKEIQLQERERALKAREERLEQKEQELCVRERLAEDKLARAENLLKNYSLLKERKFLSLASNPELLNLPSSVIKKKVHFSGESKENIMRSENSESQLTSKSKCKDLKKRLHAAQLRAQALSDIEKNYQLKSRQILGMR
# Protocol: as §1
# PAK2 = PAK2 (Homo sapiens, UniProt Q13177); settings: 100 μM compound, 20 μM ATP; read-out: Kinase activity, % of activity in the absence of inhibitor
# Chain of PAK2 (Q13177 whole entry): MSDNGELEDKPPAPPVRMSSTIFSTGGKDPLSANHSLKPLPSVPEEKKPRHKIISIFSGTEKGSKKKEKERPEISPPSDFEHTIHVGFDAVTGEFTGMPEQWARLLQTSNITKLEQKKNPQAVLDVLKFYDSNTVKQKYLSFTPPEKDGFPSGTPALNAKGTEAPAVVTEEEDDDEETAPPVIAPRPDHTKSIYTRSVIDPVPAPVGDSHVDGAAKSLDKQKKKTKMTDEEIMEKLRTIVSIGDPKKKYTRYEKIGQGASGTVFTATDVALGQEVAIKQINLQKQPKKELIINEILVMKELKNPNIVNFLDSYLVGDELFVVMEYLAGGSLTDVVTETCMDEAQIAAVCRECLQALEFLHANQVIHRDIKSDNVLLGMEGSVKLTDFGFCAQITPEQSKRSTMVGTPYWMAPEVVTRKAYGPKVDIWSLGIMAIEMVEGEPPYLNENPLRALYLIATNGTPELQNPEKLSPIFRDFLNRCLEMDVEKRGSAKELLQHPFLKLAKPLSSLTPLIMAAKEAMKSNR
# Protocol: as §1
# PIM1 = PIM1 (Homo sapiens, UniProt P11309); settings: 100 μM compound, 20 μM ATP; read-out: Kinase activity, % of activity in the absence of inhibitor
# Protocol: as §1
# PKA = PKA (Homo sapiens, UniProt P17612); settings: for activity at 100 µM: 100 μM compound, 20 μM ATP, read-out: Kinase activity, % of activity in the absence of inhibitor
# Protocol: as §1
# PKCβ = PKCβ (Homo sapiens, UniProt P05771); settings: 100 μM compound, 50 μM ATP; read-out: Kinase activity, % of activity in the absence of inhibitor
# Chain of PKCβ (P05771 whole entry): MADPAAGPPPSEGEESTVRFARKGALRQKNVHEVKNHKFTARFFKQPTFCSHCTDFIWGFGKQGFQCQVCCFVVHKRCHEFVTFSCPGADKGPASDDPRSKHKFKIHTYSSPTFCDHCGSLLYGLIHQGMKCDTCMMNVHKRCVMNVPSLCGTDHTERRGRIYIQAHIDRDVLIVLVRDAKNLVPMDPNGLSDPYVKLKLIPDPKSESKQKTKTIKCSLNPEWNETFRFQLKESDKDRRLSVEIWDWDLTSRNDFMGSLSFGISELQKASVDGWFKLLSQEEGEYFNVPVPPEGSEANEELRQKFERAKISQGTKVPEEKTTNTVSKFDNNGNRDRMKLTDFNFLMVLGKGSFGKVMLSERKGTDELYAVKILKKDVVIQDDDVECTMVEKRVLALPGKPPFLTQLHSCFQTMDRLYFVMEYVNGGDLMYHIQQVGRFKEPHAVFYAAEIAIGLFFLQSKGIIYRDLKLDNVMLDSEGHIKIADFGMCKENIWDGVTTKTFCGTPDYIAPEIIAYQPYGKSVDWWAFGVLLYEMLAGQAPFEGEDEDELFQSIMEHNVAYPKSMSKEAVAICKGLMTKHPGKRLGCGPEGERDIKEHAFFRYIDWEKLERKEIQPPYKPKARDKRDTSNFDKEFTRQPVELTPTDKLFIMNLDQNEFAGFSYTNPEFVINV
# Protocol: as §1
# PRK2 = PRK2 (Homo sapiens, UniProt Q16513); settings: 100 μM compound, 5 μM ATP; read-out: Kinase activity, % of activity in the absence of inhibitor
# Protocol: as §1
# STK33 = STK33 (Homo sapiens, UniProt Q9BYT3); settings: 100 μM compound, 50 μM ATP; read-out: Kinase activity, % of activity in the absence of inhibitor
# Chain of STK33 (Q9BYT3 whole entry): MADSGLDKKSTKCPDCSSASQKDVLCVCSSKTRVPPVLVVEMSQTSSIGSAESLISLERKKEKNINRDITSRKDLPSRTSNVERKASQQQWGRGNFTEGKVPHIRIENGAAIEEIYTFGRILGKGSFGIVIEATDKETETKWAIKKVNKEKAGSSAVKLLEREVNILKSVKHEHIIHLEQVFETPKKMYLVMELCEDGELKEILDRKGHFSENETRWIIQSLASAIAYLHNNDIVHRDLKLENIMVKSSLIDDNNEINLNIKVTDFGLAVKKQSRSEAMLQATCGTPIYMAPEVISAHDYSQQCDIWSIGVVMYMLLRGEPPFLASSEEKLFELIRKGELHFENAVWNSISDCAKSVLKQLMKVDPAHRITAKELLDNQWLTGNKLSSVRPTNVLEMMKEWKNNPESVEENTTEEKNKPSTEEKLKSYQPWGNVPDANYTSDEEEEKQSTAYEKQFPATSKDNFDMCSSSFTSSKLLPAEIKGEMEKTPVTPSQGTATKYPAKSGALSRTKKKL
# Protocol: as §1
# SmMLCK = SmMLCK (Homo sapiens, UniProt Q15746); settings: 100 μM compound, 20 μM ATP; read-out: Kinase activity, % of activity in the absence of inhibitor
# Chain of SmMLCK (Q15746 923-1914): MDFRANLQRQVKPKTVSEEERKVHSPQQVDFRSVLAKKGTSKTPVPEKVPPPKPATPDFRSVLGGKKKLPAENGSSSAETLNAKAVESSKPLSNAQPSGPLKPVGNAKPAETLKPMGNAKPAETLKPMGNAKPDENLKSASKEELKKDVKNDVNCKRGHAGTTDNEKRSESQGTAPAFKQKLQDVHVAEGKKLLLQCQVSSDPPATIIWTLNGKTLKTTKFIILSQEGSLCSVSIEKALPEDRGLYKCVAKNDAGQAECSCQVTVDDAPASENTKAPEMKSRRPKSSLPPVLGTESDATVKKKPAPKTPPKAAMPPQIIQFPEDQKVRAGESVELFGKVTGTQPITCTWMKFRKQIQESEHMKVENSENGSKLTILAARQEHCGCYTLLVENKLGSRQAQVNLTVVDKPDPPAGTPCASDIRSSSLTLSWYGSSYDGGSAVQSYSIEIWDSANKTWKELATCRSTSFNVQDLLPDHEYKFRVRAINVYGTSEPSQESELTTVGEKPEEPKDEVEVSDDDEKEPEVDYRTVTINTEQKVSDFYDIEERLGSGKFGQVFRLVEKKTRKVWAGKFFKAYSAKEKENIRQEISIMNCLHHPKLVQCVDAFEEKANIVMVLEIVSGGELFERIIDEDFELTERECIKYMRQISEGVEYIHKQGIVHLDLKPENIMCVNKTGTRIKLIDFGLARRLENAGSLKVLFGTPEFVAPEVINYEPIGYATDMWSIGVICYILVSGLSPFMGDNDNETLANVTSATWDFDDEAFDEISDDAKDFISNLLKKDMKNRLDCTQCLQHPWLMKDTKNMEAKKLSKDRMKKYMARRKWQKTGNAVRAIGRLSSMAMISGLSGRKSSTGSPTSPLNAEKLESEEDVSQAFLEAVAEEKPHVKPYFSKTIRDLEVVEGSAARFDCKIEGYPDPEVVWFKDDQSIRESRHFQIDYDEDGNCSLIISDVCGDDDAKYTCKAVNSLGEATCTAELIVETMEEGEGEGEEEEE
# Protocol: as §1
# TBK1 = biological target: T3, TBK1 (Homo sapiens, UniProt Q9UHD2); settings: 100 μM compound, 50 μM ATP; read-out: Kinase activity, % of activity in the absence of inhibitor
# T3 sequence (Q9UHD2 1-729): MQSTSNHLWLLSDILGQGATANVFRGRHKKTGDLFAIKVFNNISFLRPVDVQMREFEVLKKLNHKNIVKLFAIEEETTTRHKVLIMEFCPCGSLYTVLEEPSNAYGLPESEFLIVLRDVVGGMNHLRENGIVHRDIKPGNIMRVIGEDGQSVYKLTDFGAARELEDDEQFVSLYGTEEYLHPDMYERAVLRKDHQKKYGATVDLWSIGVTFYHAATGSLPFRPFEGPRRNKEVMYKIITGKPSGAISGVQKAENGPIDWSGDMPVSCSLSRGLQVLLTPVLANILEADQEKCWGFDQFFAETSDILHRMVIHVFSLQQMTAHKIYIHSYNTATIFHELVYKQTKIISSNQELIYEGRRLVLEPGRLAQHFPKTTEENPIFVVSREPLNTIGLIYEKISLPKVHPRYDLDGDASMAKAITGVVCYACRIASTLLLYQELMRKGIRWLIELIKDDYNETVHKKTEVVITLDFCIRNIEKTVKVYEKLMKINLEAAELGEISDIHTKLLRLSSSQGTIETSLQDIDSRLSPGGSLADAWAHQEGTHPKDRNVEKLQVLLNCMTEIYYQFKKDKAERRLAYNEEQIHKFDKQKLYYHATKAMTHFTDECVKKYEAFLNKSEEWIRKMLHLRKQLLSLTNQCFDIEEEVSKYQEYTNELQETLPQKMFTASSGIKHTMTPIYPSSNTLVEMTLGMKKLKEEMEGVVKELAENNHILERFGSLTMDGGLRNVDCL
# Protocol: as §1
# p38α MAPK = p38α MAPK (Homo sapiens, UniProt Q16539); settings: 100 μM compound, 50 μM ATP; read-out: Kinase activity, % of activity in the absence of inhibitor
# Protocol: as §1
SMILES,activity at 100 µM (CHK1) [%],activity at 100 µM (CLK2) [%],activity at 100 µM (ERK1) [%],activity at 100 µM (GSK3β) [%],activity at 100 µM (HER4) [%],activity at 100 µM (HIPK1) [%],activity at 100 µM (MAPKAP-K2) [%],activity at 100 µM (NEK2α) [%],activity at 100 µM (PAK2) [%],activity at 100 µM (PIM1) [%],activity at 100 µM (PKA) [%],"PKA inhibition in vitro (PKA; kinase profiling, 100 μM)",activity at 100 µM (PKCβ) [%],activity at 100 µM (PRK2) [%],activity at 100 µM (STK33) [%],activity at 100 µM (SmMLCK) [%],activity at 100 µM (TBK1) [%],activity at 100 µM (p38α MAPK) [%]
"CC(C)(COP(=O)(O)OP(=O)(O)OC[C@H]1O[C@@H](n2cnc3c(N)ncnc32)[C@H](O)[C@@H]1OP(=O)(O)O)[C@@H](O)C(=O)NCCC(=O)NCCS [CoA, Coenzyme A]",123,109,118,94.7,100,115,93.1,148,88.8,103,98.9,not detected,118,71.3,71.8,92.1,106,112
"CC(C)(COP(=O)(O)OP(=O)(O)OCC1OC(n2cnc3c(N)ncnc32)C(O)C1O)C(O)C(=O)NCCC(=O)NCCS (stereo not shown) [dpCoA, dephospho-CoA]",78.8,80.1,114,72.1,75.7,92.8,81.7,100,112,97.7,81.3,,105,67.5,83.3,91.3,110,87.7
Nc1ncnc2c1ncn2C1OC(COP(=O)(O)OP(=O)(O)O)C(O)C1O (stereo not shown) [ADP],47.6,33.9,67.7,18.2,29.1,31.7,53,42.1,90.3,46.1,27.8,,79.2,20.8,54.6,73,95.1,60.3

# From article PMC6812009, “Covalent Aurora A regulation by the metabolic integrator coenzyme A” (Redox Biology, 2019)
